Measured values reported in patent USRE47141E1, “Methods of treating fibrosis, cancer and vascular injuries” (EWHA University—Industry Collaboration Foundation, priority 2010, dated 2018).

Columns and labels:
MCF10A cells = assay: Wound healing assay; format: cell-based; settings: TGF-β1 2 ng/mL, 1 μM, 16 h
Method: MCF10A cells were seeded at 2×10^5 cells/well in 6-well plate. When each well was occupied by cells over 80% of the area, 10% FBS was changed to 0.2% FBS. […] Wound area change from 0 to 16 h was calculated based on Image J program (National Institutes of Health, MD, USA) based on phase-contrast images of cells taken by microscope.

[1] = tested on: TGF-β1-induced Smad2/3 nuclear translocation in MCF10A cells; assay: Immunofluorescence assay; format: cell-based; settings: TGF-β1 2 ng/mL, 1 μM, 2 h
Method: MCF10A cells were plated on the cover glass in 6-well plate at 2×10^5 cells/well. After 12 h, when cells were attached, 10% FBS medium was changed to 0.5% FBS medium. […] Then, cells were fixed with 4% formaldehyde solution for 30 min at room temperature and quenched with quenching solution (50 mM NH4Cl in PBS) for 15 min. After being washed three times with PBS, cells were incubated with blocking/permeabilization solution (1% BSA and 0.1% Triton X-100 in PBS) for 1 h at room temperature and incubated with anti-Smad2/3 antibody (BD Biosciences, Franklin Lakes, N.J., USA) overnight at 4° C. Fluorescence was visualized by Cy3-conjugated goat anti-mouse IgG (Jackson ImmunoResearch Laboratories, Bar Harbor, Me., USA). Nuclei of the same cells were stained with DAPI solution. Cells were analyzed using the LSM 510 META laser confocal microscopy system (Carl Zeiss, Germany).

4T1 cells = assay: Matrigel invasion assay; format: cell-based; settings: TGF-β1 2 ng/mL, 20 h
Method: The upper surface of Transwells (6.5 mm diameter, 8 μm pore size; […] After incubation for 20 h at 37° C. in 5% CO2, the cells remaining on the upper surface of the membrane were removed with a cotton swab, and DAPI-stained cells remaining on the bottom surface were observed using fluorescence microscopy. Average cell number per view field was obtained from 5 random fields.

ALK4 = ALK4 (Homo sapiens (Human), UniProt P36896); assay: Cell-free assay for inhibition of ALK4 kinase phosphorylation; format: biochemical
Method: ALK5 protein was expressed in Sf9 insect cells as human recombinant GST-fusion protein using the baculovirus expression system. Expressed protein was purified by affinity chromatography using GSH-agarose (Sigma-Aldrich). Kinase assay was performed in 96-well FlashPlates™ from Perkin Elmer (Boston, Mass., USA) in a 50 μL reaction volume. The reaction cocktail was pipetted in four steps in the following order: 20 μL of assay buffer (standard buffer), 5 μL of ATP solution in H2O, 5 μL of each test compounds of formula (I) in 10% DMSO, 10 μL of GSK3 (14-27) (200 ng)/10 μL of ALK5 solution (1 ng) (premixed). The reaction cocktail contained 60 mM HEPES-NaOH, pH 7.5, 3 mM MgCl2, 3 mM MnCl2, […], 1.2 mM DTT, 50 μg/mL PEG20000, 1 μM [γ-^33P]-ATP (approximately 2.5×10^5 cpm per well), 200 ng/10 μL GSK3 (14-27), and 1 ng/10 μL ALK5. The reaction cocktail was incubated at 30° C. for 60 min. […] Incorporation of ^33Pi (counting of “cpm”) was determined with a microplate scintillation counter (Microbeta, Wallac).
Inhibition of the ALK4 kinase phosphorylation by test compounds of formula (I) can be determined in a similar manner to that described above for ALK5 inhibition except that GST-tagged ALK4 (Invitrogen Corporation) and RBER-CHKtide are used in place of the GST-tagged ALK5 and GSK3 (14-27).

[2] = tested on: bile duct-ligated (BDL) rats; assay: Anti-fibrotic effect on bile duct-ligated liver fibrosis model; format: in vivo; settings: for Body weight / Organ weight Liver / Organ weight Liver/Body / Organ weight Spleen / Organ weight Spleen/Body: BDL rats, mean ± S.E.
[3] = 5 mg/kg orally three times per week for four weeks
[4] = 10 mg/kg orally three times per week for four weeks
[5] = 20 mg/kg orally three times per week for four weeks
[6] = orally three times per week for four weeks, Example 2 5, 10, 20 mg/kg, Example 3 21.8, 43.6 mg/kg
[7] = orally three times per week for four weeks, Western blot

Sequence of ALK4 (P36896 24-505): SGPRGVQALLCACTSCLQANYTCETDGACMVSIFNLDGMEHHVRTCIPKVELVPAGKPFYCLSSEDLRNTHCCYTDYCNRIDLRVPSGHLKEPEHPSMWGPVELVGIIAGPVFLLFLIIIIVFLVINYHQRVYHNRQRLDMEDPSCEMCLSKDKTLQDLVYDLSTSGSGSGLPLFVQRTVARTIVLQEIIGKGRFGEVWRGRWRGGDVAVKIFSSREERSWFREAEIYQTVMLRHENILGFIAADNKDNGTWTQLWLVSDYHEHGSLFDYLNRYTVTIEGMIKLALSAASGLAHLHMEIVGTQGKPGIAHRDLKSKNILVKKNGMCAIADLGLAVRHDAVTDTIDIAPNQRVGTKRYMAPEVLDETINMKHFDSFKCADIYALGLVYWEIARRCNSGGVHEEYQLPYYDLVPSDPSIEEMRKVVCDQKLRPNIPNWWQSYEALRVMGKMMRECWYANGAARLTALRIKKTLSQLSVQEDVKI

## Cc1cccc(-c2[nH]c(CNc3ccccc3F)nc2-c2ccc3ncnn3c2)n1 [Example 2, N-((4-([1,2,4]triazolo[1,5-a]pyridin-6-yl)-5-(6-methylpyridin-2-yl)-1H-imidazol-2-yl)methyl)-2-fluoroaniline]
MCF10A cells
  TGF-β1-induced cell migration: suppressed
[1]
  TGF-β1-induced Smad2/3 nuclear translocation: suppressed
4T1 cells
  TGF-β1-induced cell invasion: suppressed
ALK4
  IC50: 0.0173 µM
[2]; [3]
  Body weight: 324 ± 7.3 g
  Organ weight Liver: 17.5 ± 1.82 g
  Organ weight Liver/Body: 5.46 ± 0.62%
  Organ weight Spleen: 2.00 ± 0.28 g
  Organ weight Spleen/Body: 0.63 ± 0.09 %
[2]; [4]
  Body weight: 312 ± 10.4 g
  Organ weight Liver: 15.8 ± 1.88 g
  Organ weight Liver/Body: 5.08 ± 0.60%
  Organ weight Spleen: 1.57 ± 0.12 g
  Organ weight Spleen/Body: 0.51 ± 0.05 %
[2]; [5]
  Body weight: 312 ± 8.4 g
  Organ weight Liver: 15.2 ± 1.80 g
  Organ weight Liver/Body: 4.88 ± 0.63%
  Organ weight Spleen: 1.50 ± 0.16 g
  Organ weight Spleen/Body: 0.48 ± 0.05 %
[2]; liver, H&E staining
  BDL-induced histological change: greatly abolished
[2]; [6]
  body weight loss in BDL rats: recovered
  organ (liver and spleen) weight in BDL rats: decreased
  serum ALT in BDL rats: improved
  serum AST in BDL rats: improved
[2]; [7]
  fibronectin in BDL rat liver: suppressed
  α-SMA in BDL rat liver: suppressed
